The results in this text go back to US20170152258A9, “Substituted Pyridopyrazines as Syk Inhibitors” (HUTCHISON MEDIPHARMA LIMITED, priority 2012, published 2017).

The target in this experiment is T1, VEGFR-2 (KDR) (Homo sapiens, UniProt P35968).
T1 construct: purchased Invitrogen PV3660
The experiment is described as follows: Transcreener Kinase Assay of VEGFR-2 (KDR). The experiment is classed as biochemical. Conditions: recombinant human KDR, Transcreener FP. The protocol: Transcreener Kinase Assay of VEGFR-2 (KDR)
• 1) Transcreenen™ KINASE Assy kit: Bellbrook Labs., 3003-10K; • 2) Recombinant human KDR: Invitrogen, PV3660; • 3) Poly E4Y (substrate): Sigma, P0275; 5 mg/mL, dissolved in MilliQ water; • 4) Assay buffer: 67 mM HEPES, 0.013% Triton X-100, 27 mM MgCl2, 0.67 mM MnCl2, 1.25 mM DTT, PH 7.4; • 5) 10 mM ATP: Invitrogen, PV3227; • 6) 500 mM EDTA: Invitrogen, 15575-038; • 7) 96 well black Greiner plate: Greiner, 675076.
• 1) Dilute the compound to 5 folds of final concentrations, keeping the DMSO concentration at 5%. The final concentrations are 1, 0.33, 0.11, 0.037, 0.012, 0.004, 0.0014, 0.0005 μM; and the final concentration of DMSO is 1%. • 2) Prepare Enzyme/Substrate stock, Recombinant human KDR and Poly E4Y are both diluted in assay buffer. The final concentration is KDR (0.3 ng/μL), Poly E4Y (62.5 ng/μL). […]
Wherein: • 1) Compound well [ADP] represents the ADP concentration of compound well. • 2) Positive control well [ADP] represents the ADP concentration of 5% DMSO well • 3) Conversion of mP value to ADP concentration based on the formula which determined by standard curve. […] (www.bellbrooklabs.com). • IC50: calculated using XL-Fit 2.0 software.

pIC50: −log10 of the molar value.

T1 sequence (P35968 20-1356): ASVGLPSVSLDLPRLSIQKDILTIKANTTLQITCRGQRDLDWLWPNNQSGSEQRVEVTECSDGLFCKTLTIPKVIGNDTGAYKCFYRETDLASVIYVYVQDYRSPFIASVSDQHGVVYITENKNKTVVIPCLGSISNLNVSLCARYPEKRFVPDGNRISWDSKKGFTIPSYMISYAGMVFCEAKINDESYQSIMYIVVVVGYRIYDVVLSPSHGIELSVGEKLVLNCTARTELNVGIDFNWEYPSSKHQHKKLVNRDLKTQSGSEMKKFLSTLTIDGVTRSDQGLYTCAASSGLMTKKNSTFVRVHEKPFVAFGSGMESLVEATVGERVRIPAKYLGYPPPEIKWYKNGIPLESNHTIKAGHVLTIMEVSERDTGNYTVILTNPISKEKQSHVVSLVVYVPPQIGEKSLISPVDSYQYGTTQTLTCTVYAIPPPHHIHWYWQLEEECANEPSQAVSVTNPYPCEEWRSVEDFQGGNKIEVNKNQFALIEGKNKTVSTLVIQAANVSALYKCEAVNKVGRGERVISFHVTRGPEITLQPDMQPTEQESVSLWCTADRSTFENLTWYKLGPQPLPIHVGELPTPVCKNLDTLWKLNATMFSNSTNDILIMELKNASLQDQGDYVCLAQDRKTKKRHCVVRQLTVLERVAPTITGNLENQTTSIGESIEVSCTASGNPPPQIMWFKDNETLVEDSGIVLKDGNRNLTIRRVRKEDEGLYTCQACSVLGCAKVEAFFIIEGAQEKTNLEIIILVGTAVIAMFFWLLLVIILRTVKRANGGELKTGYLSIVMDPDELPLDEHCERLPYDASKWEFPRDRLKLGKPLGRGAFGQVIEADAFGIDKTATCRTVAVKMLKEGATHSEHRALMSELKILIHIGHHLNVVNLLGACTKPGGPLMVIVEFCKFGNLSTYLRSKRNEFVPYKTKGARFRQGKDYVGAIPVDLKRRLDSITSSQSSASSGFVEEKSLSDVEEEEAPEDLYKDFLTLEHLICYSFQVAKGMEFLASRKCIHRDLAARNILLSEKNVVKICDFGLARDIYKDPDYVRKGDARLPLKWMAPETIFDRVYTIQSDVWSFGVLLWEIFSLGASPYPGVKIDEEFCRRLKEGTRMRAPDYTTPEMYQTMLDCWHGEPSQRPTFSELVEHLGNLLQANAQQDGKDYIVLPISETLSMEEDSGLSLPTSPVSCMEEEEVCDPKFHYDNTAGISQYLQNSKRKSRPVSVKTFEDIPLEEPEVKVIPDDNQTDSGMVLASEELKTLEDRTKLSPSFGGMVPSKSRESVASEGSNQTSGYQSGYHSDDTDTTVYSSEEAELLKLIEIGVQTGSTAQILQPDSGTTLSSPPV

Broadly, the pIC50 is −log10 of the IC50, conventionally taken in molar units. As to `CC(C)(O)c1ccc(-c2cc3nccnc3c(OC[C@@H]3CN(S(C)(=O)=O)CCO3)n2)cc1` [Compound 219], the pIC50 is 6.13.

On to `CC(=O)N1CCO[C@H](COc2nc(-c3ccc4c(c3)CCOC4(C)C)cc3nccnc23)C1` [Compound 300], for which the pIC50 is 5.95.
